Values after ≈ are worked out from the molar mass of the structure shown. Read-outs that look alike come from different tables or passages of the source.
Key:
[1] = test system: Bord. bronchiseptica B09; test: MIC against veterinary bacteria in vitro; conditions: Bordetella bronchiseptica, B09, 18 h
Procedure: (§1) The activity of the compounds of the Examples against various veterinarily important bacteria, was assayed in vitro using two-fold serial dilutions in Diagnostic Sensitivity Test Agar inoculated with 10^4 organisms.

[2] = test system: Strep. pneumoniae CN33; test: MIC against human bacteria in vitro; format: cell-based; conditions: Streptococcus pneumoniae
[3] = test system: Staph. aureus Russell; test: MIC against human bacteria in vitro; format: cell-based; conditions: Staphylococcus aureus
[4] = test system: M. suipneumoniae NCTC 10110; test: MIC against mycoplasma in vitro; format: cell-based; conditions: Mesomycoplasma hyopneumoniae, NCTC10110, 144 h
[5] = test system: Pasteurella multocida 1633; test: MIC against human bacteria in vitro; format: cell-based
[6] = test system: Staph. aureus 152 (pen. sens); test: MIC against veterinary bacteria in vitro; conditions: Staphylococcus aureus, 18 h
Procedure: as §1

[7] = test system: Haemophilus influenzae Wy21; test: MIC against human bacteria in vitro; format: cell-based
[8] = test system: S. dublin S7; test: MIC against veterinary bacteria in vitro; conditions: Salmonella enterica, S7, 18 h
Procedure: as §1

[9] = test system: Ps. aeruginosa NCTC 10662; test: MIC against human bacteria in vitro; format: cell-based; conditions: Pseudomonas aeruginosa
[10] = test system: Strep. agalactiae SPA1; test: MIC against veterinary bacteria in vitro; conditions: Streptococcus agalactiae, SPA1, 18 h
Procedure: as §1

[11] = test system: M. pneumoniae ATCC 15492; test: MIC against mycoplasma in vitro; format: cell-based; conditions: Mycoplasmoides pneumoniae, ATCC15492, 144 h; M. pneumoniae ATCC 15492; 6 days, 37° C.; read-out: MIC
[12] = test system: Past. multocida PA2; test: MIC against veterinary bacteria in vitro; conditions: Pasteurella multocida, PA2, 18 h
Procedure: as §1

[13] = test system: Erysipelothrix rhusiopathiae NCTC 8163; test: MIC against veterinary bacteria in vitro; conditions: Erysipelothrix rhusiopathiae, NCTC8163, 18 h
Procedure: as §1

[14] = test system: Strep. agalactiae 2788-B; test: MIC against human bacteria in vitro; format: cell-based; conditions: Streptococcus agalactiae
[15] = test system: M. suipneumoniae HK(2); test: MIC against mycoplasma in vitro; format: cell-based; conditions: Mesomycoplasma hyopneumoniae, 144 h
[16] = test system: E. coli E1; test: MIC against veterinary bacteria in vitro; conditions: Escherichia coli, E1, 18 h
Procedure: as §1

[17] = test system: Staph. aureus W2827; test: MIC against human bacteria in vitro; format: cell-based; conditions: Staphylococcus aureus
[18] = test system: M. suipneumoniae MS 16; test: MIC against mycoplasma in vitro; format: cell-based; conditions: Mesomycoplasma hyopneumoniae, MS16, 144 h
[19] = test system: M. gallisepticum S6; test: MIC against mycoplasma in vitro; format: cell-based; conditions: Mycoplasmoides gallisepticum, 144 h; M. gallisepticum S6; 6 days, 37° C.; read-out: MIC
[20] = test system: M. suipneumoniae JF 435; test: MIC against mycoplasma in vitro; format: cell-based; conditions: Mesomycoplasma hyopneumoniae, JF435, 144 h
[21] = test system: M. suipneumoniae NB12; test: MIC against mycoplasma in vitro; format: cell-based; conditions: Mesomycoplasma hyopneumoniae
[22] = test system: Staph. aureus Oxford; test: MIC against veterinary bacteria in vitro; conditions: Staphylococcus aureus, 18 h
Procedure: as §1

[23] = test system: M. suipneumoniae ATCC 25095; test: MIC against mycoplasma in vitro; format: cell-based; conditions: Mesomycoplasma hyopneumoniae, ATCC25095, 144 h
[24] = test system: M. suipneumoniae UCD 1; test: MIC against mycoplasma in vitro; format: cell-based; conditions: Mesomycoplasma hyopneumoniae, UCD1, 144 h
[25] = test system: E. coli ESS; test: MIC against human bacteria in vitro; format: cell-based; conditions: Escherichia coli; E. coli ESS; 5% chocolated horse blood agar, 18 hours; read-out: MIC
[26] = test system: E. coli NCTC 10418; test: MIC against veterinary bacteria in vitro; conditions: Escherichia coli, NCTC10418, 18 h
Procedure: as §1

[27] = test system: Strep. spp. 64/848-C; test: MIC against human bacteria in vitro; format: cell-based
[28] = test system: S. typhimurium S18; test: MIC against veterinary bacteria in vitro; conditions: Salmonella enterica, TYPHIMURIUM, 18 h
Procedure: as §1

[29] = test system: M. hyorhinis ATCC 23234; test: MIC against mycoplasma in vitro; format: cell-based; conditions: Mesomycoplasma hyorhinis, ATCC23234, 144 h
[30] = test system: Strep. suis (group D) SPS11; test: MIC against veterinary bacteria in vitro; conditions: Streptococcus suis, 18 h
Procedure: as §1

[31] = test system: M. suipneumoniae TAM 6N; test: MIC against mycoplasma in vitro; format: cell-based; conditions: Mesomycoplasma hyopneumoniae, TAM6N, 144 h
[32] = test system: Bord. bronchiseptica B08; test: MIC against veterinary bacteria in vitro; conditions: Bordetella bronchiseptica, B08, 18 h
Procedure: as §1

[33] = test system: M. bovigenitalium ATCC 14173; test: MIC against mycoplasma in vitro; format: cell-based; conditions: 144 h; M. bovigenitalium ATCC 14173; 6 days, 37° C.; read-out: MIC
[34] = test system: Sarcina lutea 8340; test: MIC against human bacteria in vitro; format: cell-based
[35] = Strep. pneumoniae CN33, 5% chocolated horse blood agar, 18 hours, read-out: MIC
[36] = Staph. aureus Russell, 5% chocolated horse blood agar, 18 hours, read-out: MIC
[37] = Pasteurella multocida 1633, 5% chocolated horse blood agar, 18 hours, read-out: MIC
[38] = NCTC10662, Ps. aeruginosa NCTC 10662, 5% chocolated horse blood agar, 18 hours, read-out: MIC
[39] = Strep. agalactiae 2788-B, 5% chocolated horse blood agar, 18 hours, read-out: MIC
[40] = Staph. aureus W2827, 5% chocolated horse blood agar, 18 hours, read-out: MIC
[41] = Strep. spp. 64/848-C, 5% chocolated horse blood agar, 18 hours, read-out: MIC
[42] = M. suipneumoniae NCTC 10110, 6 days, 37° C., read-out: MIC
[43] = Haemophilus influenzae Wy21, 5% chocolated horse blood agar, 18 hours, read-out: MIC
[44] = M. suipneumoniae HK(2), 6 days, 37° C., read-out: MIC
[45] = M. suipneumoniae JF 435, 6 days, 37° C., read-out: MIC
[46] = 144 h, M. suipneumoniae NB12, Friis broth, 0.9% agarose, 6 days, 37° C., read-out: MIC
[47] = M. suipneumoniae UCD 1, 6 days, 37° C., read-out: MIC
[48] = M. suipneumoniae TAM 6N, 6 days, 37° C., read-out: MIC

## C/C(=C\c1cc(C)on1)C[C@@H]1OC[C@H](C[C@@H]2O[C@H]2[C@@H](C)[C@H](C)O)[C@@H](O)[C@H]1O [Example 33, 5-Methyl-3-(1-normon-2-yl) isoxazole A]
[1]
  MIC: > 80 µg/mL
[2]; [35]
  MIC: 32 µg/mL (≈ 83.9 µM)
[3]; [36]
  MIC: 8 µg/mL (≈ 21 µM)
[4]
  MIC: 2.5 µg/mL (≈ 6.55 µM)
[5]; [37]
  MIC: 2 µg/mL (≈ 5.24 µM)
[6]
  MIC: 2.5 µg/mL (≈ 6.55 µM)
[7]; Haemophilus influenzae, WY21, 18 h
  MIC: 0.25 µg/mL (≈ 0.655 µM)
[8]
  MIC: > 80 µg/mL
[9]; [38]
  MIC: > 128 µg/mL
[10]
  MIC: 10 µg/mL (≈ 26.2 µM)
[11]
  MIC: 10 µg/mL (≈ 26.2 µM)
[12]
  MIC: 0.625 µg/mL (≈ 1.64 µM)
[13]
  MIC: > 80 µg/mL
[14]; [39]
  MIC: 64 µg/mL (≈ 168 µM)
[15]
  MIC: 2.5 µg/mL (≈ 6.55 µM)
[16]
  MIC: > 80 µg/mL
[17]; [40]
  MIC: 8 µg/mL (≈ 21 µM)
[18]
  MIC: 1 µg/mL (≈ 2.62 µM)
[19]
  MIC: > 10 µg/mL
[20]
  MIC: 2.5 µg/mL (≈ 6.55 µM)
[21]; NB12, 144 h
  MIC: 2.5 µg/mL (≈ 6.55 µM)
[22]
  MIC: 2.5 µg/mL (≈ 6.55 µM)
[23]
  MIC: 1 µg/mL (≈ 2.62 µM)
[24]
  MIC: 1 µg/mL (≈ 2.62 µM)
[25]
  MIC: 8 µg/mL (≈ 21 µM)
[26]
  MIC: > 80 µg/mL
[27]; [41]
  MIC: 32 µg/mL (≈ 83.9 µM)
[28]
  MIC: > 80 µg/mL
[29]
  MIC: 1 µg/mL (≈ 2.62 µM)
[30]
  MIC: > 80 µg/mL
[31]
  MIC: 2.5 µg/mL (≈ 6.55 µM)
[32]
  MIC: > 80 µg/mL
[33]
  MIC: 0.5 µg/mL (≈ 1.31 µM)

## C/C(=C\c1ncc(-c2ccccc2)o1)C[C@@H]1OC[C@H](C[C@@H]2O[C@H]2[C@@H](C)[C@H](C)O)[C@@H](O)[C@H]1O [Example 1, 2-(1-normon-2-yl)-5-phenyloxazole A]
[1]
  MIC: 20 µg/mL (≈ 45.1 µM)
[2]; [35]
  MIC: 2.5 µg/mL (≈ 5.64 µM)
[3]; [36]
  MIC: 5 µg/mL (≈ 11.3 µM)
[4]; [42]
  MIC: 1 µg/mL (≈ 2.25 µM)
[5]; [37]
  MIC: 10 µg/mL (≈ 22.5 µM)
[6]
  MIC: 1.25 µg/mL (≈ 2.82 µM)
[7]; [43]
  MIC: 1 µg/mL (≈ 2.25 µM)
[8]
  MIC: > 80 µg/mL
[9]; [38]
  MIC: > 100 µg/mL
[10]
  MIC: 1.25 µg/mL (≈ 2.82 µM)
[11]
  MIC: 2.5 µg/mL (≈ 5.64 µM)
[12]
  MIC: 1.25 µg/mL (≈ 2.82 µM)
[13]
  MIC: 80 µg/mL (≈ 180 µM)
[34]; Micrococcus luteus, Sarcina lutea 8340, 5% chocolated horse blood agar, 18 hours, read-out: MIC
  MIC: ≥ 100 µg/mL
[14]; [39]
  MIC: 5 µg/mL (≈ 11.3 µM)
[15]; [44]
  MIC: 1 µg/mL (≈ 2.25 µM)
[16]
  MIC: > 80 µg/mL
[17]; [40]
  MIC: 5 µg/mL (≈ 11.3 µM)
[18]
  MIC: 0.5 µg/mL (≈ 1.13 µM)
[19]
  MIC: 2.5 µg/mL (≈ 5.64 µM)
[20]; [45]
  MIC: 1 µg/mL (≈ 2.25 µM)
[21]; [46]
  MIC: 1 µg/mL (≈ 2.25 µM)
[22]
  MIC: 1.25 µg/mL (≈ 2.82 µM)
[23]
  MIC: 0.5 µg/mL (≈ 1.13 µM)
[24]; [47]
  MIC: 1 µg/mL (≈ 2.25 µM)
[25]
  MIC: 10 µg/mL (≈ 22.5 µM)
[26]
  MIC: > 80 µg/mL
[27]; [41]
  MIC: 2.5 µg/mL (≈ 5.64 µM)
[28]
  MIC: > 80 µg/mL
[29]
  MIC: 0.5 µg/mL (≈ 1.13 µM)
[30]
  MIC: 20 µg/mL (≈ 45.1 µM)
[31]; [48]
  MIC: 1 µg/mL (≈ 2.25 µM)
[32]
  MIC: 80 µg/mL (≈ 180 µM)

## C/C(=C/c1ncc(-c2ccccc2)o1)C[C@@H]1OC[C@H](C[C@@H]2O[C@H]2[C@@H](C)[C@H](C)O)[C@@H](O)[C@H]1O [Example 2, 2-{3-[5-(2,3-epoxy-5-hydroxy-4-methylhexyl)-3,4-dihydroxytetrahydropyran-2-yl]-2-methylprop-1(Z)-enyl}-5-phenyloxazole]
[1]
  MIC: > 80 µg/mL
[2]; CN33, 18 h
  MIC: > 50 µg/mL
[3]; 18 h
  MIC: > 50 µg/mL
[4]; [42]
  MIC: 10 µg/mL (≈ 22.5 µM)
[5]; Pasteurella multocida, 1633, 18 h
  MIC: > 50 µg/mL
[6]
  MIC: 20 µg/mL (≈ 45.1 µM)
[7]; [43]
  MIC: 12.5 µg/mL (≈ 28.2 µM)
[8]
  MIC: > 80 µg/mL
[9]; NCTC10662, 18 h
  MIC: > 50 µg/mL
[10]
  MIC: 20 µg/mL (≈ 45.1 µM)
[12]
  MIC: 20 µg/mL (≈ 45.1 µM)
[13]
  MIC: > 80 µg/mL
[34]; Micrococcus luteus, 8340, 18 h
  MIC: > 50 µg/mL
[14]; 2788B, 18 h
  MIC: > 50 µg/mL
[15]; [44]
  MIC: 10 µg/mL (≈ 22.5 µM)
[16]
  MIC: > 80 µg/mL
[17]; W2827, 18 h
  MIC: > 50 µg/mL
[18]; M. suipneumoniae MS 16, 6 days, 37° C., read-out: MIC
  MIC: 5 µg/mL (≈ 11.3 µM)
[19]
  MIC: > 10 µg/mL
[20]; [45]
  MIC: > 10 µg/mL
[21]; [46]
  MIC: > 10 µg/mL
[22]
  MIC: 20 µg/mL (≈ 45.1 µM)
[23]; M. suipneumoniae ATCC 25095, 6 days, 37° C., read-out: MIC
  MIC: 10 µg/mL (≈ 22.5 µM)
[24]; [47]
  MIC: 10 µg/mL (≈ 22.5 µM)
[25]
  MIC: 25 µg/mL (≈ 56.4 µM)
[26]
  MIC: > 80 µg/mL
[27]; 18 h
  MIC: > 50 µg/mL
[28]
  MIC: > 80 µg/mL
[29]; M. hyorhinis ATCC 23234, 6 days, 37° C., read-out: MIC
  MIC: 10 µg/mL (≈ 22.5 µM)
[30]
  MIC: > 80 µg/mL
[31]; [48]
  MIC: > 10 µg/mL
[32]
  MIC: > 80 µg/mL
[33]
  MIC: 0.5 µg/mL (≈ 1.13 µM)

Source: US5041567A, “Antibacterial monic acid derivatives” (Beecham Group plc, priority 1982, dated 1991)
